Laboratory results taken from US9340590B2 (priority 2011, dated 2016).
Positions of bridges follow the written chain, without caps; N, C: chain ends. Non-standard residues stand in square brackets, D forms with d. Residues, ends and D or L forms follow the SMILES beside them. Trp(1-Me) = Cn1cc(C[C@H](N)C(=O)O)c2ccccc21; Phe(4-I) = N[C@@H](Cc1ccc(I)cc1)C(=O)O; 1Nal = N[C@@H](Cc1cccc2ccccc12)C(=O)O

How the values were obtained:
Test in all cases: cell-based
[1] = biological target: hNav1.3 (Homo sapiens, UniProt Q9NY46); format: cell-based; conditions: Nav1.3 Use IC50
Sequence of hNav1.3 (Q9NY46 whole entry, looked up): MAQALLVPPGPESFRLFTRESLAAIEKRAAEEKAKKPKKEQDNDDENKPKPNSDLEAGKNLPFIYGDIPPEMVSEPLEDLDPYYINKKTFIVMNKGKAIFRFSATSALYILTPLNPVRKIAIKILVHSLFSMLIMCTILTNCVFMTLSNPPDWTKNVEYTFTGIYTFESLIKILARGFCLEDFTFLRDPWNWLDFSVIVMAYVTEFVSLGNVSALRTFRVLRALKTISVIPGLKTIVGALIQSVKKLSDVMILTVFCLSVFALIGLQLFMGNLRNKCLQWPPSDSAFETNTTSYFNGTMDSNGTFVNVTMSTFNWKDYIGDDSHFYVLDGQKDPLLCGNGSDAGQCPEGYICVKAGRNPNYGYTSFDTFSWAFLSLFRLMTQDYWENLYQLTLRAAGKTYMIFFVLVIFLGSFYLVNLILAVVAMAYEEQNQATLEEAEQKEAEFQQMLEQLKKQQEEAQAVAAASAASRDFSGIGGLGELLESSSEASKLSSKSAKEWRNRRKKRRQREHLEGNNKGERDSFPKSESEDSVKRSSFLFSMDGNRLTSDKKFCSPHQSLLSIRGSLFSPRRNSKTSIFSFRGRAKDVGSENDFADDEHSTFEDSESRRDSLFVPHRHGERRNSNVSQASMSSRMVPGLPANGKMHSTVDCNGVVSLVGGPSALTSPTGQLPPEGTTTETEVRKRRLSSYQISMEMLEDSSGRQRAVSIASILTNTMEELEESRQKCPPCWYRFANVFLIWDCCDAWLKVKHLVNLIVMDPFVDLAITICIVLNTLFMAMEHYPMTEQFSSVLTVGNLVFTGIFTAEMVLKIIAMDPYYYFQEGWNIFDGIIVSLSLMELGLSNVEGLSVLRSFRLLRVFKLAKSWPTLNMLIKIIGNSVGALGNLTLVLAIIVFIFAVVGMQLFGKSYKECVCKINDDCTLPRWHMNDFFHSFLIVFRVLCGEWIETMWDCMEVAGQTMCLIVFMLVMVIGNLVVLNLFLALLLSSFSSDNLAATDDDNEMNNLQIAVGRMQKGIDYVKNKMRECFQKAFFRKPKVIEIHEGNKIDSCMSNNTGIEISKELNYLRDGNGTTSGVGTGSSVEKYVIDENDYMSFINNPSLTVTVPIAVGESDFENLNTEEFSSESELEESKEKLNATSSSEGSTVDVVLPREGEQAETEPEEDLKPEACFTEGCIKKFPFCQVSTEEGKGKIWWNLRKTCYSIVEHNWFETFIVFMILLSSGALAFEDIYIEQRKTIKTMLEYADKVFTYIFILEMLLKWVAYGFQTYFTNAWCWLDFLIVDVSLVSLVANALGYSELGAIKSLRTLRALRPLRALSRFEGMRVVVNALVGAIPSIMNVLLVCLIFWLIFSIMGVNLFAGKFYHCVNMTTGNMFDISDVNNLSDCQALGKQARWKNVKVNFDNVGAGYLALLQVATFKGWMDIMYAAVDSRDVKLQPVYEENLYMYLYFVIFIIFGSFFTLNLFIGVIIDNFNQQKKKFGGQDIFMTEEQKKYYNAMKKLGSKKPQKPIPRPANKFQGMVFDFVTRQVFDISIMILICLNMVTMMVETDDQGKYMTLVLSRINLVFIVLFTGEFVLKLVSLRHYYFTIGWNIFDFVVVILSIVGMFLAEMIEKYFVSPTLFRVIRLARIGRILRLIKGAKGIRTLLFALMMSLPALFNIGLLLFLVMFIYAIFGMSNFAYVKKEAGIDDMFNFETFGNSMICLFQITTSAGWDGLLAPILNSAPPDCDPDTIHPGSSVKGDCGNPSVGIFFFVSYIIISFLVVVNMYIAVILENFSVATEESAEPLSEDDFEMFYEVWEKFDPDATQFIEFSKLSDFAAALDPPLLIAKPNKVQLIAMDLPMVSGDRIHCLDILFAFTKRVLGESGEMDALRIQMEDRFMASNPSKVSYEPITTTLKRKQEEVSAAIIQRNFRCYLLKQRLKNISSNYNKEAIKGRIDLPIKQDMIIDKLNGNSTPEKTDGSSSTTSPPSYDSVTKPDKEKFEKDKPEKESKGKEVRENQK

[2] = biological target: hNav1.5 (Homo sapiens, UniProt Q14524)
[3] = biological target: hNav1.7 (Homo sapiens, UniProt Q15858); conditions: Nav1.7 Use IC50
Sequence of hNav1.7 (Q15858 whole entry, looked up): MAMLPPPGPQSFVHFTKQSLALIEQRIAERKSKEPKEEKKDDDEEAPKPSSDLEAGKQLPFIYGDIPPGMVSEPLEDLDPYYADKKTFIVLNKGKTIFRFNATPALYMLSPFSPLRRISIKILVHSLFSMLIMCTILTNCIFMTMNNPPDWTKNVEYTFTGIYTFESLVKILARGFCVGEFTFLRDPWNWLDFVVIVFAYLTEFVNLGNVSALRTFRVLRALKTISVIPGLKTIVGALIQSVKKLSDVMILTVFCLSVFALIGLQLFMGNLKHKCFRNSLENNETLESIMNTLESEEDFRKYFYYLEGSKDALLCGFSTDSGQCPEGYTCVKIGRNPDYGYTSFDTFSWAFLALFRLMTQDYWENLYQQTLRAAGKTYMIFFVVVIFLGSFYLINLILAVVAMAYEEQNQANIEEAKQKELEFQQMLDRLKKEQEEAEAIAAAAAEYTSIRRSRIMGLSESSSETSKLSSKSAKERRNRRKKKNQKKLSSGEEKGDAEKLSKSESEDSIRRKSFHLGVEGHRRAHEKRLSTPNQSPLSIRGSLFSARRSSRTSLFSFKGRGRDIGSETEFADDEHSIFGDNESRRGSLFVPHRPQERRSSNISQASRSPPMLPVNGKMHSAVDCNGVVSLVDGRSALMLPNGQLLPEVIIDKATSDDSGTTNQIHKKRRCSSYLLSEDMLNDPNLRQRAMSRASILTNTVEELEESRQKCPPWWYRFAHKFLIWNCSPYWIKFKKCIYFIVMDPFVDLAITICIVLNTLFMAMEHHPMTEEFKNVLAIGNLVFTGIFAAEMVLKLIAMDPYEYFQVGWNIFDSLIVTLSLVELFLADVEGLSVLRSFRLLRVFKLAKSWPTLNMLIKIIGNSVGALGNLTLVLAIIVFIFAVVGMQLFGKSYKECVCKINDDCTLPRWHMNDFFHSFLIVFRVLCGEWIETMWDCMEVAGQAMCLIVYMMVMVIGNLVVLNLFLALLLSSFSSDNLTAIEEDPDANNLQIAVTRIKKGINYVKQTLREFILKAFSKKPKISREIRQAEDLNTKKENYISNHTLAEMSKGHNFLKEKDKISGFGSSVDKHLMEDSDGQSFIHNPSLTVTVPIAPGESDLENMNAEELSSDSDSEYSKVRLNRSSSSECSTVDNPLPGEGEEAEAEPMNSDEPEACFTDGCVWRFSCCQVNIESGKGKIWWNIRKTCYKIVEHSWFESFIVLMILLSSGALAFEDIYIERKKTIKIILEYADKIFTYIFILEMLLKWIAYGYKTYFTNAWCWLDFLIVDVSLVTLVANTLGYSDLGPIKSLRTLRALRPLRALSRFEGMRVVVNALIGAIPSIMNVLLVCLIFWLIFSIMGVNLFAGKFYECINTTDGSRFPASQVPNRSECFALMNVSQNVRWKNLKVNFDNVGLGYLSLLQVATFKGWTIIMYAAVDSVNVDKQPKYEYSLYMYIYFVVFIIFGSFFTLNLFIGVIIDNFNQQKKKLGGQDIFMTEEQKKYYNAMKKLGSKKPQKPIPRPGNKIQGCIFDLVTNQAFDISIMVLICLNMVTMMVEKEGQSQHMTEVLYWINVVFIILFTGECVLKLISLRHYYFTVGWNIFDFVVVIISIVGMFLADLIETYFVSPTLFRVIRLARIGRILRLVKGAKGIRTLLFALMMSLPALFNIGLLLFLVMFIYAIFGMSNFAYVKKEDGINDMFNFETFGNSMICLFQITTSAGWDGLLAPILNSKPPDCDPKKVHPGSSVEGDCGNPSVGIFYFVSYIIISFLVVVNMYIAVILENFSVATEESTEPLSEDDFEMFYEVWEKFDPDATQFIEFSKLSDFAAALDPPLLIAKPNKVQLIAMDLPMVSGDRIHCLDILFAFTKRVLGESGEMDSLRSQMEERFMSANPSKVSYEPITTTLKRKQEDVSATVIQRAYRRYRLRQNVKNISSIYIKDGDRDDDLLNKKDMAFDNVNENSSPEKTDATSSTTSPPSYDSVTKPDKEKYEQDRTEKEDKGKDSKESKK

SMILES	IC50 [1] [nM]	IC50 [2] [nM]	IC50 [3] [nM]
CC[C@H](C)[C@@H]1NC(=O)[C@@H]2CSSC[C@@H]3NC(=O)[C@H](C(C)C)NC(=O)[C@H](CC(C)C)NC(=O)[C@H](CC(N)=O)NC(=O)[C@@H]4CCCN4C(=O)[C@H](CCCNC(=N)N)NC(=O)[C@H](CSSC[C@H](NC(=O)[C@@H](N)CC(=O)O)C(=O)N[C@@H](CC(C)C)C(=O)NCC(=O)N[C@@H](C)C(=O)N[C@@H](Cc4cccc5ccccc45)C(=O)N[C@@H](CCCNC(=N)N)C(=O)N[C@@H](CCCCN)C(=O)N2)NC(=O)[C@H](CSSC[C@@H](C(=O)N[C@@H](CCCCN)C(=O)N[C@@H](Cc2ccc(O)cc2)C(=O)N[C@H](C(=O)N[C@@H](Cc2ccccc2)C(N)=O)C(C)C)NC(=O)[C@H](Cc2c[nH]c4ccccc24)NC(=O)[C@H](CCCCN)NC(=O)[C@H](Cc2cnc[nH]2)NC(=O)[C@H]([C@@H](C)O)NC(=O)[C@H](CCCNC(=N)N)NC(=O)[C@H](CO)NC3=O)NC(=O)[C@H](CCCCN)NC(=O)[C@H](CC(=O)O)NC(=O)[C@H](CC(N)=O)NC(=O)[C@H](CC(=O)O)NC(=O)[C@@H]2CCCN2C1=O [[Ala5;1-Nal6]GpTx-1(1-34)]	8	3810	2
CC[C@H](C)[C@@H]1NC(=O)[C@@H]2CSSC[C@@H]3NC(=O)[C@H](C(C)C)NC(=O)[C@H](CC(C)C)NC(=O)[C@H](CC(N)=O)NC(=O)[C@@H]4CCCN4C(=O)[C@H](CCCNC(=N)N)NC(=O)[C@H](CSSC[C@H](NC(=O)[C@@H](N)CC(=O)O)C(=O)N[C@@H](CC(C)C)C(=O)NCC(=O)N[C@@H](Cc4ccccc4)C(=O)N[C@@H](CCSC)C(=O)N[C@@H](CCCNC(=N)N)C(=O)N[C@@H](CCCCN)C(=O)N2)NC(=O)[C@H](CSSC[C@@H](C(=O)N[C@@H](CCCCN)C(=O)N[C@@H](Cc2cn(C)c4ccccc24)C(=O)N[C@H](C(=O)N[C@@H](Cc2ccccc2)C(N)=O)C(C)C)NC(=O)[C@H](Cc2c[nH]c4ccccc24)NC(=O)[C@H](CCCCN)NC(=O)[C@H](Cc2c[nH]cn2)NC(=O)[C@H]([C@@H](C)O)NC(=O)[C@H](CCCNC(=N)N)NC(=O)[C@H](CO)NC3=O)NC(=O)[C@H](CCCCN)NC(=O)[C@H](CC(=O)O)NC(=O)[C@H](CC(N)=O)NC(=O)[C@H](CC(=O)O)NC(=O)[C@@H]2CCCN2C1=O [[1′NMeW32]GpTx-1(1-34)] (H-DCLGFMRKCIPDNDKCCRPNLVCSRTHKWCK[Trp(1-Me)]VF-NH2; disulfide 2-17, 9-23, 16-30)	18	6850	6
CC[C@H](C)[C@@H]1NC(=O)[C@@H]2CSSC[C@@H]3NC(=O)[C@H](C(C)C)NC(=O)[C@H](CC(C)C)NC(=O)[C@H](CC(N)=O)NC(=O)[C@@H]4CCCN4C(=O)[C@H](CCCNC(=N)N)NC(=O)[C@H](CSSC[C@H](NC(=O)[C@@H](N)CC(=O)O)C(=O)N[C@@H](CC(C)C)C(=O)NCC(=O)N[C@@H](Cc4ccccc4)C(=O)N[C@@H](CCSC)C(=O)N[C@@H](CCCNC(=N)N)C(=O)N[C@@H](CCCCN)C(=O)N2)NC(=O)[C@H](CSSC[C@@H](C(=O)N[C@@H](CCCCN)C(=O)N[C@@H](Cc2ccc(O)cc2)C(=O)N[C@@H](Cc2cn(C)c4ccccc24)C(=O)N[C@@H](Cc2ccccc2)C(N)=O)NC(=O)[C@H](Cc2c[nH]c4ccccc24)NC(=O)[C@H](CCCCN)NC(=O)[C@H](Cc2c[nH]cn2)NC(=O)[C@H]([C@@H](C)O)NC(=O)[C@H](CCCNC(=N)N)NC(=O)[C@H](CO)NC3=O)NC(=O)[C@H](CCCCN)NC(=O)[C@H](CC(=O)O)NC(=O)[C@H](CC(N)=O)NC(=O)[C@H](CC(=O)O)NC(=O)[C@@H]2CCCN2C1=O [[1′NMeW33]GpTx-1(1-34)] (H-DCLGFMRKCIPDNDKCCRPNLVCSRTHKWCKY[Trp(1-Me)]F-NH2; disulfide 2-17, 9-23, 16-30)	37	9540	54
CC[C@H](C)[C@@H]1NC(=O)[C@@H]2CSSC[C@@H]3NC(=O)[C@H](C(C)C)NC(=O)[C@H](CC(C)C)NC(=O)[C@H](CC(N)=O)NC(=O)[C@@H]4CCCN4C(=O)[C@H](CCCNC(=N)N)NC(=O)[C@H](CSSC[C@H](NC(=O)[C@@H](N)CC(=O)O)C(=O)N[C@@H](CC(C)C)C(=O)NCC(=O)N[C@@H](Cc4ccccc4)C(=O)N[C@@H](CCSC)C(=O)N[C@@H](CCCNC(=N)N)C(=O)N[C@@H](CCCCN)C(=O)N2)NC(=O)[C@H](CSSC[C@@H](C(=O)N[C@@H](CCCCN)C(=O)N[C@@H](Cc2ccc(O)cc2)C(=O)N[C@@H](Cc2ccc(I)cc2)C(=O)N[C@@H](Cc2ccccc2)C(N)=O)NC(=O)[C@H](Cc2c[nH]c4ccccc24)NC(=O)[C@H](CCCCN)NC(=O)[C@H](Cc2c[nH]cn2)NC(=O)[C@H]([C@@H](C)O)NC(=O)[C@H](CCCNC(=N)N)NC(=O)[C@H](CO)NC3=O)NC(=O)[C@H](CCCCN)NC(=O)[C@H](CC(=O)O)NC(=O)[C@H](CC(N)=O)NC(=O)[C@H](CC(=O)O)NC(=O)[C@@H]2CCCN2C1=O [[pI-Phe33]GpTx-1(1-34)] (H-DCLGFMRKCIPDNDKCCRPNLVCSRTHKWCKY[Phe(4-I)]F-NH2; disulfide 2-17, 9-23, 16-30)	35	10400	26
CC[C@H](C)[C@@H]1NC(=O)[C@@H]2CSSC[C@@H]3NC(=O)[C@H](C(C)C)NC(=O)[C@H](CC(C)C)NC(=O)[C@H](CC(N)=O)NC(=O)[C@@H]4CCCN4C(=O)[C@H](CCCNC(=N)N)NC(=O)[C@H](CSSC[C@H](NC(=O)[C@@H](N)CC(=O)O)C(=O)N[C@@H](CC(C)C)C(=O)NCC(=O)N[C@@H](C)C(=O)N[C@@H](CCSC)C(=O)N[C@@H](CCCNC(=N)N)C(=O)N[C@@H](CCCCN)C(=O)N2)NC(=O)[C@H](CSSC[C@@H](C(=O)N[C@@H](CCCCN)C(=O)N[C@@H](Cc2ccc(O)cc2)C(=O)N[C@@H](Cc2cccc4ccccc24)C(=O)N[C@@H](Cc2ccccc2)C(N)=O)NC(=O)[C@H](Cc2c[nH]c4ccccc24)NC(=O)[C@H](CCCCN)NC(=O)[C@H](Cc2c[nH]cn2)NC(=O)[C@H]([C@@H](C)O)NC(=O)[C@H](CCCNC(=N)N)NC(=O)[C@H](CO)NC3=O)NC(=O)[C@H](CCCCN)NC(=O)[C@H](CC(=O)O)NC(=O)[C@H](CC(N)=O)NC(=O)[C@H](CC(=O)O)NC(=O)[C@@H]2CCCN2C1=O [[Ala5;1-Nal33]GpTx-1(1-34)] (H-DCLGAMRKCIPDNDKCCRPNLVCSRTHKWCKY[1Nal]F-NH2; disulfide 2-17, 9-23, 16-30)	201	> 10000	48
CC[C@H](C)[C@@H]1NC(=O)[C@@H]2CSSC[C@@H]3NC(=O)[C@H](C(C)C)NC(=O)[C@H](CC(C)C)NC(=O)[C@H](CC(N)=O)NC(=O)[C@@H]4CCCN4C(=O)[C@H](CCCNC(=N)N)NC(=O)[C@H](CSSC[C@H](NC(=O)[C@@H](N)CC(=O)O)C(=O)N[C@@H](CC(C)C)C(=O)NCC(=O)N[C@@H](Cc4ccccc4)C(=O)N[C@@H](CCSC)C(=O)N[C@@H](CCCNC(=N)N)C(=O)N[C@@H](CCCCN)C(=O)N2)NC(=O)[C@H](CSSC[C@@H](C(=O)N[C@@H](CCCCN)C(=O)N[C@@H](Cc2cccc4ccccc24)C(=O)N[C@H](C(=O)N[C@@H](Cc2ccccc2)C(N)=O)C(C)C)NC(=O)[C@H](Cc2c[nH]c4ccccc24)NC(=O)[C@H](CCCNC(=N)N)NC(=O)[C@H](Cc2c[nH]cn2)NC(=O)[C@H]([C@@H](C)O)NC(=O)[C@H](CCCNC(=N)N)NC(=O)[C@H](CO)NC3=O)NC(=O)[C@H](CCCCN)NC(=O)[C@H](CC(=O)O)NC(=O)[C@H](CC(N)=O)NC(=O)[C@H](CC(=O)O)NC(=O)[C@@H]2CCCN2C1=O [[Arg28;1-Nal32]GpTx-1(1-34)] (H-DCLGFMRKCIPDNDKCCRPNLVCSRTHRWCK[1Nal]VF-NH2; disulfide 2-17, 9-23, 16-30)	6	1060	5
CC[C@H](C)[C@@H]1NC(=O)[C@@H]2CSSC[C@@H]3NC(=O)[C@H](C(C)C)NC(=O)[C@H](CC(C)C)NC(=O)[C@H](CC(N)=O)NC(=O)[C@@H]4CCCN4C(=O)[C@H](CCCNC(=N)N)NC(=O)[C@H](CSSC[C@H](NC(=O)[C@@H](N)CC(=O)O)C(=O)N[C@@H](CC(C)C)C(=O)NCC(=O)N[C@@H](C)C(=O)N[C@@H](CCSC)C(=O)N[C@@H](CCCNC(=N)N)C(=O)N[C@@H](CCCCN)C(=O)N2)NC(=O)[C@H](CSSC[C@@H](C(=O)N[C@@H](CCCCN)C(=O)N[C@@H](Cc2cccc4ccccc24)C(=O)N[C@H](C(=O)N[C@@H](Cc2ccccc2)C(N)=O)C(C)C)NC(=O)[C@H](Cc2c[nH]c4ccccc24)NC(=O)[C@H](CCCCN)NC(=O)[C@H](Cc2c[nH]cn2)NC(=O)[C@H]([C@@H](C)O)NC(=O)[C@H](CCCNC(=N)N)NC(=O)[C@H](CO)NC3=O)NC(=O)[C@H](CCCCN)NC(=O)[C@H](CC(=O)O)NC(=O)[C@H](CC(N)=O)NC(=O)[C@H](CC(=O)O)NC(=O)[C@@H]2CCCN2C1=O [[Ala5;1-Nal32]GpTx-1(1-34)] (H-DCLGAMRKCIPDNDKCCRPNLVCSRTHKWCK[1Nal]VF-NH2; disulfide 2-17, 9-23, 16-30)	122	> 10000	28
